ChEMBL document CHEMBL1133336, “Synthesis of a cyanopeptide-analogue with trypsin activating properties” (Bioorg Med Chem Lett, 2000)

Legend:
Serine protease 1 [1] = target: T1, Serine protease 1 (Homo sapiens, UniProt P07477); assay: Percent increase in the activity of trypsin by the compound at concentration between 20 mM and 40 mM
Prothrombin = Prothrombin (Homo sapiens, UniProt P00734); assay: Compound was tested for inhibition of thrombin
Serine protease 1 [2] = target: T1, Serine protease 1; assay: Compound was tested for inhibition of trypsin
Plasminogen = Plasminogen (Homo sapiens, UniProt P00747); assay: Compound was tested for inhibition of plasmin
Plasminogen, sequence (P00747 97-580 limits assumed): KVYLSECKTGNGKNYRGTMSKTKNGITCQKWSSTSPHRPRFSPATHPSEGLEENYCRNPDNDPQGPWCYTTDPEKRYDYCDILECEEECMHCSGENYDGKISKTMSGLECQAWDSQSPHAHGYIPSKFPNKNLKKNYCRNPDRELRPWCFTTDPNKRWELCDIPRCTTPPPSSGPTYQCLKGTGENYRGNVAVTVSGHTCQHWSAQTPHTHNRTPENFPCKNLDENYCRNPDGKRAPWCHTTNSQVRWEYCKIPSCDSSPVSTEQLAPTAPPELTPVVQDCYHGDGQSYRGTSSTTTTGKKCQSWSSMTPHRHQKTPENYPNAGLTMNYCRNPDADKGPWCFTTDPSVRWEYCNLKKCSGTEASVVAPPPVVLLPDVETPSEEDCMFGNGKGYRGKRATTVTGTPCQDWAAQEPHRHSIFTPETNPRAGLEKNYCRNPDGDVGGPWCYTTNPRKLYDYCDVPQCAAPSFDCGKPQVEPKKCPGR
Plasminogen, sequence (P00747 581-810 limits assumed): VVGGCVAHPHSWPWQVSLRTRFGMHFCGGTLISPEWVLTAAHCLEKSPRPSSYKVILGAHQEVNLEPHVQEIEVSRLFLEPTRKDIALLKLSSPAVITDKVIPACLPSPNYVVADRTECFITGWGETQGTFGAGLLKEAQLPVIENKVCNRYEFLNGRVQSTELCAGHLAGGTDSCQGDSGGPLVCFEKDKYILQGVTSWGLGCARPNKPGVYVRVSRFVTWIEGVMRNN

T1 sequence (P07477 whole entry): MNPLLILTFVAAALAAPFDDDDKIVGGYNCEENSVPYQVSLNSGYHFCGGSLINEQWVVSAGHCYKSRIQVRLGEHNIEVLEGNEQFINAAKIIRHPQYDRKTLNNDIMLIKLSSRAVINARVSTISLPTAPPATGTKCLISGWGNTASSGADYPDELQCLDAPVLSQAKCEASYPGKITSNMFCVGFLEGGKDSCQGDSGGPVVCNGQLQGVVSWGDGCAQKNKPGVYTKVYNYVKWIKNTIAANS

Increase (Serine protease 1 [1]) [%]	IC50 (Prothrombin) [nM]	IC50 (Serine protease 1 [2]) [nM]	IC50 (Plasminogen) [nM]	SMILES
70	–	–	–	CCC(C)C(NC(=O)CCc1ccc(O)cc1)C(=O)N1CCN(CCOC(=O)C2CCCN2)CC1 (stereo not given)
–	10200	871	8710	CC[C@H](C)[C@H](NC(=O)C(O)Cc1ccc(O)c(Cl)c1)C(=O)N1C2CC(OS(=O)(=O)O)CCC2C[C@H]1C(=O)NCCCCN=C(N)N (stereo not given in full)
–	54.6	273	409	N=C(N)N1CCC[C@H](NC(=O)C2CC3CCC(O)CC3N2C(=O)[C@@H](Cc2ccc(O)cc2)NC(=O)[C@H](O)Cc2ccc(OS(=O)(=O)O)cc2)C1O (stereo not given in full)
–	15300	916	10700	CC[C@H](C)[C@H](NC(=O)C(O)Cc1ccc(O)cc1)C(=O)N1C2CC(OS(=O)(=O)O)CCC2C[C@H]1C(=O)NCCCCN=C(N)N (stereo not given in full)
